Data from US20250241906A1, “ANABOLIC DRUGS STIMULATING TYPE II COLLAGEN PRODUCTION FROM CHONDROCYTES OR THEIR PROGENITORS” (UNIVERSITY OF CENTRAL FLORIDA RESEARCH FOUNDATION, INC., priority 2022, published 2025).
Where a name gives a salt, the structure may show the parent alone.

Tests used:
[1] = test system: type II collagen promoter (COL2A1-GLuc) in primary rabbit chondrocytes; assay: COL2A1-GLuc primary rabbit chondrocyte 3D aggregate luciferase assay; assay type: cell-based; details: day 21; for luminescence with a single vitamin or mineral vs basal media alone: one factor at a time; for luminescence: basal media alone ~40,000 RLU
Method: Chondrogenic Culture. Rabbit COL2A1-GLuc were thawed and seeded in growth media at 6000 cells/cm^2 and expanded to 90-100% confluence in physioxia. Cells were trypsinized (0.25% Trypsin/EDTA; Corning), resuspended in basal chondrogenic media (93.24% High-Glucose DMEM (Gibco), 1% dexamethasone 10^−5 M (Sigma), 1% ITS+premix (Becton-Dickinson), 1% Glutamax (Hyclone), 1% 100 mM Sodium Pyruvate (Hyclone), 1% MEM Non-Essential Amino Acids (Hyclone), 0.26% L-Ascorbic Acid Phosphate 50 mM (Wako), 0.5% Fungizone (Life Technologies) with TGF-β1 (Peprotech) and seeded as described below.
Generation and Maintenance of 3D Aggregates. To generate 3D aggregates, cells were seeded at 50,000 cells per well (in 96-well cell repellent u-bottom plates, GreinerBio) and then centrifuged at 500 RCF, 5 min. For the TGF-β1 dose response studies, that serve as positive controls for the reporter cells, aggregates were cultured in basal chondrogenic media and different concentrations of TGF-β1 ranging from 0-10 ng/ml. For the DoE studies, aggregates were cultured in basal chondrogenic media (1 ng/ml TGF-β1) as a control or basal media supplemented with vitamins and minerals (Table 3 and Table 5). Plates were cultured for three weeks in physioxia, media was sampled and replaced three times a week with respective medium. An OT-2 (Opentrons) python coded robotic pipette, programmed at an aspiration height of 2 mm from the bottom of the wells and aspiration rate of 40 μl/s was utilized for media preparation, cell feeding, and media sampling for luciferase assay. After three weeks, cell aggregates were either fixed in neutral buffered formalin for histology or medium removed and aggregates frozen dry (−20° C.) for biochemical assays.
(§1) Luciferase Assay. Cell culture medium sampled from the seeded 96-wells (20 μL/well) was assessed using a stabilized Gaussia Luciferase buffer at a final concentration of 0.09 M MES, 0.15M Ascorbic Acid, and 4.2 μM Coelenterazine in white 96-well plates. Luminescence was measured in a plate reader (25° C., relative light units, En Vision plate reader). An OT-2 (Opentrons) python coded robotic pipette was utilized for luciferase buffer addition to white plates (GreinerBio).

HuCol2gLuc aggregates = assay: Biochemical assays (DNA, GAG, total collagen) on HuCol2gLuc aggregates; assay type: cell-based, human
Method: Biochemical Assays. Aggregates frozen at day 22, were thawed with PBS, and digested with Papain (25 μg/ml, Sigma, P4762, in 2 mM cysteine; 50 mM sodium phosphate; 2 mM EDTA at a pH 6.5, 100 μl) at 65° C. overnight. Plates were sealed with a qPCR adhesive sealing film (USA Scientific), a silicone sheet, and steel plates clamped to the plate to prevent evaporation during digestion. Half of the digest (50 μl) was transferred to another plate and frozen for hydroxyproline assessment. In the remaining digest, papain was inactivated with 0.1M sodium hydroxide (NaOH, 50 μl) followed by NaOH neutralization (100 mM Na2HPO4, 0.1 N HCL, pH 1.82, 50 μl). To quantitate DNA content, samples of the neutralized digest (20 μl) were combined with buffered Hoechst dye (#33258, 667 ng/ml, phosphate buffer pH 8, 100 μl) and fluorescence measured at an excitation of 365 nm and emission of 460 nm. For GAG assessment, 1,9-Dimethyl-methylene blue solution (195 μl) was added to neutralized digests (5 μl) and absorbance measured at 595 nm and 525 nm. Readings were corrected by subtracting 595 nm reading from 525 nm. Micrograms of DNA and GAG were calculated using a Calf thymus DNA standard (Sigma) or Chondroitin Sulfate standard (Seikagaku Corp.), respectively.
For hydroxyproline (HP) quantification, the frozen digests (50 μl) were thawed at room temperature and incubated overnight at 105° C. with 6M hydrochloric acid (200 μl). Plates were sealed to prevent evaporation. Samples were then dried at 70° C. overnight with a hydroxyproline standard (Sigma). Copper sulfate (0.15 M, 10 μl) and NaOH (2.5 M, 10 μl) were added to each well and incubated at 50° C. for 5 minutes, followed by hydrogen peroxide (6%, 10 μl) for 10 minutes. Sulfuric acid (1.5 M, 40 μl) and Ehrlich's reagent (20 μl) were added and samples incubated at 70° C. for 15 minutes. Absorbance was measured at 505 nm. Micrograms of hydroxyproline were calculated using the standard. Total collagen was calculated by the following formula (μg of HP×7.6=μg Total Collagen).

[2] = test system: type II collagen promoter (COL2A1-Gaussia luciferase) in primary human chondrocytes; assay: HuCol2gLuc 3D aggregate type II collagen promoter-driven Gaussia luciferase assay; assay type: cell-based; details: for stimulation of type II collagen production in the screen of natural products: NCI Natural Products Set V, 5 μM continuously, 22-day assay
Method: Chondrogenic Culture. Human COL2A1-GLuc or uninfected cells were thawed and seeded in growth media on synoviocyte matrix at 6,000 cells/cm^2 and expanded to 90-100% confluence in physioxia. Cells were trypsinized (0.25% Trypsin/EDTA; Corning), resuspended in growth media (for monolayer culture) or chondrogenic differentiation media for 3D aggregates (93.24% High-Glucose DMEM (Gibco), 1% dexamethasone 10^−5M (Sigma), 1% ITS+premix (Becton-Dickinson), 1% Glutamax (Hyclone), 1% 100 mM Sodium Pyruvate (Hyclone), 1% MEM Non-Essential Amino Acids (Hyclone), 0.26% L-Ascorbic Acid Phosphate 50 mM (Wako), 0.5% Fungizone (Life Technologies) with TGF-β1 (Peprotech) and seeded as described below.
Generation and Maintenance of 3D aggregates. To generate 3D aggregates, cells were seeded at 50,000 cells per well (in 96-well cell repellent u-bottom plates, GreinerBio) and then centrifuged at 500 RCF, 5 min. For the initial drug screen, aggregates were cultured in basal chondrogenic media (1 ng/ml TGF-β1) alone, with DMSO (vehicle control) or 5 μM of the drug compounds from the NCI library (Natural Products V, NCI). For candidate validation and subsequent studies aggregates were cultured in basal chondrogenic media (10 ng/ml TGF-β1) alone, with DMSO (vehicle control) or compounds as indicated in the results. Aggregates were cultured for three weeks in physioxic conditions, culture medium was sampled and replaced three times a week with fresh medium. An OT-2 (Opentrons) python coded robotic pipette, programmed at an aspiration height of 2 mm from the bottom of the wells and aspiration rate of 40 μl/s was utilized for addition of compound, cell feeding, and media sampling for luciferase assay. After three weeks, cell aggregates were either fixed in neutral buffered formalin for histology or medium removed and aggregates frozen dry (−20° C.) for biochemical assays.
as §1, with “Assay. Conditioned” for “Assay. Cell”, “from aggregates in” for “from the seeded”, “buffer mix (50 µl/well) for” for “buffer at”, “light units (RLU),” for “light units,”

rat knee = details: cited from earlier work
[3] = validation, donor 2, 10 ng/ml TGF-β1

N[C@@H](Cc1cc(I)c(Oc2cc(I)c(O)c(I)c2)c(I)c1)C(=O)O [thyroxine, Thyroxine]
luminescence with a single vitamin or mineral vs basal media alone [1]: higher luminescence

COC(=O)[C@H]1[C@H]2C[C@@H]3c4[nH]c5ccccc5c4CCN3C[C@H]2C[C@@H](OC(=O)c2cc(OC)c(OC)c(OC)c2)[C@@H]1OC [Drug 204, Deserpidine, reference compound]
glycosaminoglycan (GAG) content (HuCol2gLuc aggregates; day 22, donor 1): no effect on GAG | total collagen (HuCol2gLuc aggregates; day 22, donor 1): no significant increase in total collagen | DNA content (HuCol2gLuc aggregates; day 22, donor 2, vs untreated): significant decrease in DNA content | glycosaminoglycan (GAG) content (HuCol2gLuc aggregates; day 22, donor 2, untreated 15 μg): 10 µg | total collagen (HuCol2gLuc aggregates; day 22, donor 2, untreated ~14 μg): no significant increase in total collagen | stimulation of type II collagen production in the screen of natural products ([2]; listed as 204): stimulatory effects | stimulation of type II collagen production in the screen of natural products ([2]; listed as Deserpidine): stimulate type II collagen | day 22 luminescence normalized to DMSO vehicle control ([2]; screen, 5 μM, 1 ng/ml TGF-β1): significant increase in luminescence | trend of luminescence over 22 days normalized to DMSO ([2]; screen, 5 μM, 1 ng/ml TGF-β1): initial decrease in expression with continued increase in luminescence after day 8 | cumulative luminescence ([2]; validation, donor 1): no significant increase | luminescence over 22 days vs untreated control ([2]; validation, donor 1, 10 ng/ml TGF-β1): increase in luminescence | luminescence over 22 days vs untreated control [2, 3]: not donor 2

6-Hydroxy-2-methoxyaporphine
stimulation of type II collagen production in the screen of natural products [2]: stimulate type II collagen

Nc1ncnc2c1ncn2C1C=C(CO)C(O)C1O (stereo not drawn) [5-(6-Aminopurin-9-yl)-3-(hydroxymethyl)cyclopent-3-ene-1,2-diol]
stimulation of type II collagen production in the screen of natural products [2]: stimulate type II collagen

[Co] [cobalt, Cobalt]
luminescence with a single vitamin or mineral vs basal media alone [1]: higher luminescence

Vitamin A
luminescence with a single vitamin or mineral vs basal media alone [1]: detrimental to chondrogenesis

[Cu] [Copper]
luminescence [1]: ~40,000 RLU

CC(C)CC(=O)Nc1cncc(-c2ccc3[nH]nc(-c4nc5cncc(-c6cccc(F)c6)c5[nH]4)c3c2)c1 [SM04690, reference compound]
in vivo scaled amount (rat knee): 0.3 μg/rat knee

CC(C)=CC(=O)O[C@H]1[C@H]2[C@H](OC(=O)[C@H]2C)[C@H](O)[C@@H](C)[C@@H]2C=CC(=O)[C@]21C [Fastigilin B]
stimulation of type II collagen production in the screen of natural products [2]: stimulate type II collagen

c1ccc(N2CCN(Cc3nc4ccccc4[nH]3)CC2)nc1 [ABT 724, reference compound]
luminescence vs untreated control ([2]; donor 2, 0.1 μM or 1 μM): no effect | cumulative luminescence vs untreated controls ([2]; donor 2, 10 μM and 25 μM): significant increase in luminescence | luminescence vs untreated control ([2]; donor 2, 10 μM and 25 μM, from day 8 to day 22): increase in luminescence

COc1cc2c3c(c1O)-c1cc(O)ccc1C[C@@H]3N(C)CC2 [(-)-Apoglaziovine]
stimulation of type II collagen production in the screen of natural products [2]: stimulate type II collagen

CC(=O)CCCCn1c(=O)c2c(ncn2C)n(C)c1=O [Pentoxifylline, reference compound]
stimulation of type II collagen production in the screen of natural products [2]: stimulate type II collagen

COc1cc2c3c(c1O)-c1cc(O)ccc1CC3N(C)CC2 (stereo not drawn) [1,10-Dihydroxy-2-methoxyaporphine]
stimulation of type II collagen production in the screen of natural products [2]: stimulate type II collagen

Cl.Cl.Fc1ccc(N2CCN(CCC3OCCc4ccccc43)CC2)cc1 (stereo not drawn) [PNU 96415E, reference compound]
cumulative luminescence vs untreated controls ([2]; donor 2, 12.5 μM and 25 μM): significant increase in luminescence | luminescence vs untreated controls ([2]; donor 2, 12.5 μM and 25 μM): increased luminescence

CC[C@]1(O)C[C@H]2CN(CCc3c([nH]c4ccccc34)[C@@](C(=O)OC)(c3cc4c(cc3OC)N(C=O)[C@H]3[C@@](O)(C(=O)OC)[C@H](OC(C)=O)[C@]5(CC)C=CCN6CC[C@]43[C@@H]65)C2)C1 [Vincristine sulfate, reference compound]
stimulation of type II collagen production in the screen of natural products [2]: stimulate type II collagen

Promoline [Drug 84]
luminescence over 22 days vs untreated control [2, 3]: increased luminescence

[Cr] [chromium, Chromium]
luminescence with a single vitamin or mineral vs basal media alone [1]: higher luminescence

C=C1C(=O)OC2C1CCC(C)C1(O)C=CC(=O)C21C (stereo not drawn) [Parthenicin]
stimulation of type II collagen production in the screen of natural products [2]: stimulate type II collagen

Nc1nc(=O)c2c([nH]1)NCC(CNc1ccc(C(=O)N[C@@H](CCC(=O)[O-])C(=O)[O-])cc1)N2C=O.[Ca+2] (stereo partly drawn) [Calcium folinate, reference compound]
stimulation of type II collagen production in the screen of natural products [2]: stimulate type II collagen

O=C(O)CCCC[C@@H]1SC[C@@H]2NC(=O)N[C@@H]21 [Vitamin B7, Biotin]
luminescence [1]: ~40,000 RLU | luminescence with a single vitamin or mineral vs basal media alone [1]: higher luminescence

B1: FGF18: growth factor cited for dose scaling (protein, UniProt O76093 28-207, looked up)
Fibroblast growth factor 18: EENVDFRIHVENQTRARDDVSRKQLRLYQLYSRTSGKHIQVLGRRISARGEDGDKYAQLLVETDTFGSQVRIKGKETEFYLCMNRKGKLVGKPDGTSKECVFIEKVLENNYTALMSAKYSGWYVGFTKKGRPRKGPKTRENQQDVHFMKRYPKGQPELQKPFKYTTVTKRSRRIRPTHPA
in vivo rat knee efficacy (rat knee): 3-5 μg/knee
